From ChEMBL document CHEMBL1154418 (2007)
In brackets after ≈: the same amount, converted by molar mass. Activity calls are given as the source filed them. The calls are words filed in the database; no cut-off is given here.

Columns and labels:
Escherichia coli [1] = assay: Antibacterial activity against tetracycline-resistant Escherichia coli clinical isolates expressing tet(A) gene by broth microdilution method; assay type: functional
Escherichia coli [2] = assay: Antibacterial activity against tetracycline-resistant Escherichia coli clinical isolates expressing tet(A), tet(B), tet(D), tet(E) gene by broth microdilution method; assay type: functional, organism-based
Escherichia coli [3] = assay: Antibacterial activity against tetracycline-resistant Escherichia coli clinical isolates expressing tet(A), tet(B) gene by broth microdilution method; assay type: functional
Escherichia coli [4] = assay: Antibacterial activity against tetracycline-resistant Escherichia coli clinical isolates expressing tet(B) gene by broth microdilution method; assay type: functional
Escherichia coli [5] = assay: Antibacterial activity against tetracycline-resistant Escherichia coli clinical isolates expressing tet(C) gene by broth microdilution method; assay type: functional, organism-based
Escherichia coli [6] = assay: Antibacterial activity against tetracycline-resistant Escherichia coli with single drug resistance determinant isolates by broth microdilution method; assay type: functional
Escherichia coli [7] = assay: Antibacterial activity against tetracycline-resistant Escherichia coli clinical isolates expressing tet(M) gene by broth microdilution method; assay type: functional, organism-based
Escherichia coli [8] = assay: Antibacterial activity against tetracycline-resistant Escherichia coli with multiple drug resistance determinant isolates by broth microdilution method; assay type: functional
Escherichia coli [9] = assay: Antibacterial activity against tetracycline-resistant Escherichia coli clinical isolates expressing tet(B), tet(D) gene by broth microdilution method; assay type: functional
Escherichia coli [10] = assay: Antibacterial activity against tetracycline-resistant Escherichia coli clinical isolates expressing tet(A), tet(E) gene by broth microdilution method; assay type: functional, organism-based
Escherichia coli [11] = assay: Antibacterial activity against tetracycline-resistant Escherichia coli clinical isolates expressing tet(D), tet(E) gene by broth microdilution method; assay type: functional, organism-based
Escherichia coli [12] = assay: Antibacterial activity against tetracycline-resistant Escherichia coli clinical isolates expressing tet(E) gene by broth microdilution method; assay type: functional, organism-based
Escherichia coli [13] = assay: Antibacterial activity against tetracycline-resistant Escherichia coli clinical isolates expressing tet(B), tet(D), tet(E) gene by broth microdilution method; assay type: functional, organism-based
Escherichia coli [14] = assay: Antibacterial activity against tetracycline-resistant Escherichia coli clinical isolates without tet(B) gene by broth microdilution method; assay type: functional
Escherichia coli [15] = assay: Antibacterial activity against tetracycline-susceptible Escherichia coli clinical isolates by broth microdilution method; assay type: functional
Escherichia coli [16] = assay: Antibacterial activity against tetracycline-resistant Escherichia coli clinical isolates by broth microdilution method; assay type: functional
Escherichia coli [17] = assay: Antibacterial activity against tetracycline-resistant Escherichia coli clinical isolates expressing tet(B), tet(E) gene by broth microdilution method; assay type: functional
Escherichia coli [18] = assay: Antibacterial activity against Escherichia coli ATCC 25922 by broth microdilution method; assay type: functional, organism-based
Escherichia coli [19] = assay: Antibacterial activity against tetracycline-resistant Escherichia coli clinical isolates expressing tet(B), tet(C) gene by broth microdilution method; assay type: functional, organism-based
Escherichia coli [20] = assay: Antibacterial activity against tetracycline-resistant Escherichia coli clinical isolates expressing tet(A), tet(D) gene by broth microdilution method; assay type: functional
Escherichia coli [21] = assay: Antibacterial activity against tetracycline-resistant Escherichia coli clinical isolates expressing tet(A), tet(M) gene by broth microdilution method; assay type: functional, organism-based
Escherichia coli [22] = assay: Antibacterial activity against tetracycline-resistant Escherichia coli clinical isolates expressing tet(A), tet(B), tet(D) gene by broth microdilution method; assay type: functional, organism-based
Escherichia coli [23] = assay: Antibacterial activity against tetracycline-resistant Escherichia coli clinical isolates expressing tet(D) gene by broth microdilution method; assay type: functional
Escherichia coli [24] = assay: Antibacterial activity against tetracycline-resistant Escherichia coli clinical isolates expressing tet(C), tet(E) gene by broth microdilution method; assay type: functional, organism-based

Compound | MIC50 (Escherichia coli [1]) [µg/mL] | MIC90 (Escherichia coli [1]) [µg/mL] | Activity (Escherichia coli [2]) | MIC50 (Escherichia coli [3]) [µg/mL] | MIC90 (Escherichia coli [3]) [µg/mL] | MIC50 (Escherichia coli [4]) [µg/mL] | MIC90 (Escherichia coli [4]) [µg/mL] | Activity (Escherichia coli [5]) | MIC50 (Escherichia coli [6]) [µg/mL] | MIC90 (Escherichia coli [6]) [µg/mL] | Activity (Escherichia coli [7]) | MIC50 (Escherichia coli [8]) [µg/mL] | MIC90 (Escherichia coli [8]) [µg/mL] | MIC50 (Escherichia coli [9]) [µg/mL] | MIC90 (Escherichia coli [9]) [µg/mL] | Activity (Escherichia coli [10]) | Activity (Escherichia coli [11]) | Activity (Escherichia coli [12]) | Activity (Escherichia coli [13]) | MIC50 (Escherichia coli [14]) [µg/mL] | other results
CN(C)c1ccc(O)c2c1C[C@H]1C[C@H]3[C@H](N(C)C)C(O)=C(C(N)=O)C(=O)[C@@]3(O)C(O)=C1C2=O [MINOCYCLINE] | 2 (≈ 4.37 µM) | 4 (≈ 8.74 µM) | inactive | 16 (≈ 35 µM) | 32 (≈ 69.9 µM) | 16 (≈ 35 µM) | 32 (≈ 69.9 µM) | inactive | 8 (≈ 17.5 µM) | 32 (≈ 69.9 µM) | inactive | 8 (≈ 17.5 µM) | 32 (≈ 69.9 µM) | 16 (≈ 35 µM) | 64 (≈ 140 µM) | inactive | inactive | inactive | inactive | 4 (≈ 8.74 µM) | MIC90 (Escherichia coli [14]): 8 µg/mL (≈ 17.5 µM); MIC50 (Escherichia coli [15]): 1 µg/mL (≈ 2.19 µM); MIC90 (Escherichia coli [15]): 2 µg/mL (≈ 4.37 µM); MIC50 (Escherichia coli [16]): 4 µg/mL (≈ 8.74 µM); MIC90 (Escherichia coli [16]): 8 µg/mL (≈ 17.5 µM); MIC50 (Escherichia coli [17]): 8 µg/mL (≈ 17.5 µM); MIC90 (Escherichia coli [17]): 32 µg/mL (≈ 69.9 µM); Activity (Escherichia coli [18]): inactive; Activity (Escherichia coli [19]): inactive; MIC50 (Escherichia coli [20]): 4 µg/mL (≈ 8.74 µM); MIC90 (Escherichia coli [20]): 16 µg/mL (≈ 35 µM); Activity (Escherichia coli [21]): inactive; Activity (Escherichia coli [22]): inactive; MIC50 (Escherichia coli [23]): 8 µg/mL (≈ 17.5 µM); MIC90 (Escherichia coli [23]): 8 µg/mL (≈ 17.5 µM); Activity (Escherichia coli [24]): inactive
CN(C)[C@@H]1C(O)=C(C(N)=O)C(=O)[C@@]2(O)C(O)=C3C(=O)c4c(O)cccc4[C@@](C)(O)[C@H]3C[C@@H]12 [TETRACYCLINE] | > 64 | 64 (≈ 144 µM) | inactive | > 64 | > 64 | > 64 | > 64 | inactive | > 64 | > 64 | inactive | > 64 | > 64 | > 64 | > 64 | inactive | inactive | inactive | inactive | > 64 | MIC90 (Escherichia coli [14]): > 64 µg/mL; MIC90 (Escherichia coli [15]): 4 µg/mL (≈ 9 µM); MIC50 (Escherichia coli [16]): > 64 µg/mL; MIC90 (Escherichia coli [16]): > 64 µg/mL; MIC50 (Escherichia coli [17]): > 64 µg/mL; MIC90 (Escherichia coli [17]): > 64 µg/mL; Activity (Escherichia coli [19]): inactive; MIC50 (Escherichia coli [20]): > 64 µg/mL; MIC90 (Escherichia coli [20]): > 64 µg/mL; Activity (Escherichia coli [21]): inactive; Activity (Escherichia coli [22]): inactive; MIC50 (Escherichia coli [23]): > 64 µg/mL; MIC90 (Escherichia coli [23]): > 64 µg/mL; Activity (Escherichia coli [24]): inactive
CN(C)c1cc(NC(=O)CNC(C)(C)C)c(O)c2c1C[C@H]1C[C@H]3[C@H](N(C)C)C(O)=C(C(N)=O)C(=O)[C@@]3(O)C(O)=C1C2=O [TIGECYCLINE] | 0.5 (≈ 0.854 µM) | 0.5 (≈ 0.854 µM) | inactive | 0.25 (≈ 0.427 µM) | 0.5 (≈ 0.854 µM) | 0.25 (≈ 0.427 µM) | 0.5 (≈ 0.854 µM) | inactive | 0.25 (≈ 0.427 µM) | 0.5 (≈ 0.854 µM) | inactive | 0.25 (≈ 0.427 µM) | 0.5 (≈ 0.854 µM) | 0.25 (≈ 0.427 µM) | 0.5 (≈ 0.854 µM) | inactive | inactive | inactive | inactive | 0.5 (≈ 0.854 µM) | MIC90 (Escherichia coli [14]): 0.5 µg/mL (≈ 0.854 µM); MIC50 (Escherichia coli [15]): 0.25 µg/mL (≈ 0.427 µM); MIC90 (Escherichia coli [15]): 0.5 µg/mL (≈ 0.854 µM); MIC50 (Escherichia coli [16]): 0.5 µg/mL (≈ 0.854 µM); MIC90 (Escherichia coli [16]): 1 µg/mL (≈ 1.71 µM); MIC50 (Escherichia coli [17]): 0.25 µg/mL (≈ 0.427 µM); MIC90 (Escherichia coli [17]): 0.25 µg/mL (≈ 0.427 µM); Activity (Escherichia coli [18]): inactive; Activity (Escherichia coli [19]): inactive; MIC50 (Escherichia coli [20]): 0.5 µg/mL (≈ 0.854 µM); MIC90 (Escherichia coli [20]): 1 µg/mL (≈ 1.71 µM); Activity (Escherichia coli [21]): inactive; Activity (Escherichia coli [22]): inactive; MIC50 (Escherichia coli [23]): 0.25 µg/mL (≈ 0.427 µM); MIC90 (Escherichia coli [23]): 0.5 µg/mL (≈ 0.854 µM); Activity (Escherichia coli [24]): inactive
